We go through seven molecules from ChEMBL document CHEMBL6078628, “A perspective on the development of small molecular neprilysin inhibitors (NEPi) with emphasis on cardiorenal disease” (Eur J Med Chem, 2024).

Experiment [1] concerns the target T1, Neprilysin (Homo sapiens, UniProt P08473). In words: Binding affinity to NEP (unknown origin) assessed as inhibition constant.
The target in experiment [2] is T2, Type-2 angiotensin II receptor (Homo sapiens, UniProt P50052).
T2 sequence (P50052 whole entry): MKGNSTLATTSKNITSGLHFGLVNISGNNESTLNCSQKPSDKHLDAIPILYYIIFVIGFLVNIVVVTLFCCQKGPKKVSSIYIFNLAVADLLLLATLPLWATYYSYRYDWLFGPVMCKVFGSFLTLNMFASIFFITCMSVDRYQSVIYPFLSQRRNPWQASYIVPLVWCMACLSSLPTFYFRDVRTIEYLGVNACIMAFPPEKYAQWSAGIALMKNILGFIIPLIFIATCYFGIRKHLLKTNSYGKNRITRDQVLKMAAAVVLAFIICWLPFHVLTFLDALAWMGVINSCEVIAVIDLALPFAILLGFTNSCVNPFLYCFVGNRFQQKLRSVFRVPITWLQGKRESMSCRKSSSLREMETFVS
In words: Inhibition of Angiotensin-2 receptor (unknown origin).

Experiment [3] concerns the target T1, Neprilysin. The experiment in a line: Inhibition of NEP (unknown origin).

T1 sequence (P08473 whole entry): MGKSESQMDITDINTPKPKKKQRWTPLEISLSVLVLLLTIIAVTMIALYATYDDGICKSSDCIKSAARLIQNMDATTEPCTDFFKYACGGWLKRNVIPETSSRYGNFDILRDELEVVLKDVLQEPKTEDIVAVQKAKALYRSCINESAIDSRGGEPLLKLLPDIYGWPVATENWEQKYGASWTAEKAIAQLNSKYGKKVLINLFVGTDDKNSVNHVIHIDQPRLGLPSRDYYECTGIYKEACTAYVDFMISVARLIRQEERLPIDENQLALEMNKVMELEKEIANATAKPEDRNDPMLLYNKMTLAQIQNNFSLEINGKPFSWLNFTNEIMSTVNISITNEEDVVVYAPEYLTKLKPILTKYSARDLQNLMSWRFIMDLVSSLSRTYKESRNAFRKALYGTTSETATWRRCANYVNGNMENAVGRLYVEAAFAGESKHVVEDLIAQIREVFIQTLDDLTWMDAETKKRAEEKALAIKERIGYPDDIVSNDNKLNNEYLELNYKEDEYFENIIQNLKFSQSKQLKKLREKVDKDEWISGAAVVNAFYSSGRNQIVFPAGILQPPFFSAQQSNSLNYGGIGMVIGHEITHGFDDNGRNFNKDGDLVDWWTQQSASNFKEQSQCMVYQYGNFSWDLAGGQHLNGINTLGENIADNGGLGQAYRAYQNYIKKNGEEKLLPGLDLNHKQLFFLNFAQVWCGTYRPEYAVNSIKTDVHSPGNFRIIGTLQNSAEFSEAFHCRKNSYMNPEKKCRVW

A word on the Ki: it is a dissociation constant, usually derived from enzyme kinetics or from competition with a known ligand. As for `COc1cc(/C=C2\CCC/C(=C\c3ccc(O)c(OC)c3)C2=O)ccc1O` [CYCLOVALONE], the Ki on Neprilysin [1] was 0.64 nM.
What is called IC50 is the point on the concentration scale where inhibition reaches its midpoint. Lower therefore signals inhibition by little substance. `N[C@@H](Cc1ccc(Oc2cc(I)c(O)c(I)c2)c(I)c1)C(=O)O` [REVERSE TRIIODOTHYRONINE]: half-maximal inhibition in experiment [2] (IC50) required 29800 nM.
With `SC[C@@H](Cc1ccccc1)c1nc2cnccc2[nH]1`, the IC50 against Neprilysin [3] was 40 nM.
For the molecule `SC[C@@H](Cc1ccc(-c2ccccc2)cc1)c1nc2cnccc2[nH]1`, on Neprilysin [3], the 50% inhibitory concentration (IC50) was determined as 30 nM.
The same measure, in the same setting: the result for `COC(c1ccccc1)c1cnc(C(CS)Cc2ccccc2)[nH]1` (stereo not drawn) reads 1700 nM.
Consider `COCCOC[C@H](CC1(C(=O)N[C@H]2CC[C@@H](C(=O)O)CC2)CCCC1)C(=O)O` [CANDOXATRILAT], for which the Ki at Neprilysin [1] turned out to be 6.1 nM.
On to `O=C(N[C@H]1CCS[C@H]2CCC[C@@H](C(=O)O)N2C1=O)[C@@H](S)Cc1ccccc1` [OMAPATRILAT], for which the inhibition constant (Ki) at Neprilysin [1] came out at 0.45 nM. Further, at Neprilysin [3], the IC50 turned out to be 5 nM.
